# Data published in patent US5538977A, “3-Substituted-7-[3-(imidazol-1-yl)phenyl]-pyrazolo[1,5-a]pyrimidines” (American Cyanamid Company, priority 1995, dated 1996).
# Legend:
# [1] = Protection against clonic seizures caused by pentylenetetrazole in rats; assay type: in vivo, rat; conditions: pentylenetetrazole 23 mg/kg i.v. at 30 or 60 min
# Protocol: The anti-anxiety and anticonvulsant properties of the novel compounds of the present invention have been established in a test which indicates anxiolytic activity by the measure of protection from convulsions resulting from the administration of pentylenetetrazole. Single or graded dose levels of the test compounds were administered orally or intraperitoneally in a 2% starch vehicle, containing 0.5% v/v polyethylene glycol and one drop of Polysorbate 80 to groups of at least 4 rats. At 30 or 60 minutes, the rats were treated intravenously with pentylenetetrazole at a dose of 23 mg/kg of body weight. This dose is estimated to cause clonic seizures in 99% of unprotected rats. It has Been reported [R. T. Hill and D. H. Tedeschi, "Animal Testing and Screening Procedures in Evaluating Psychotropic Drugs" in "An Introduction to Psychopharmacology",Eds. R. R. Rech and K. E. Moore, Raven Press, N.Y., pp 237-288 (1971)]that there is a high degree of correlation between antagonism of pentylenetetrazole seizures in rats and anti-anxiety or anticonvulsant effects in higher warm-blooded animals.
# [2] = Nonconditioned passive avoidance (conflict) test in rats; assay type: in vivo, rat (Wistar strain); conditions: 25 mg/kg oral or i.p., 30 to 60 min, active if number of shocks received is significantly higher than control group by Mann-Witney U test
# Protocol: Another test which has been used to assess antianxiety effects is a nonconditioned passive avoidance procedure described by [J. R. Vogel, B. Beer and D. E. Clody, "A Simple and Reliable Conflict Procedure for Testing Anti-Anxiety Agents", Psychopharmacologia, 21, 1-7(1971)]. A conflict situation is induced in rats by a modification of this method.
# Groups of 6 naive, Wistar strain rats, weighing 200-240 g each were deprived of water for 48 hours and food for 24 hours. The test compounds were administered in single or graded, oral or intraperitoneal doses, suspended in a 2% starch vehicle containing 0.5% v/v polyethylene glycol and one drop of polysorbate 80. Control animals received the vehicle alone. At 30 to 60 minutes each rat was placed in an individual plexiglass chamber. Water was available ad libitum from a tap located in the rear of the chamber. A 0.7 milliampere DC shocking current was established between the stainless steel grid floor and the tap. After 20 licks of nonshocked drinking, a shock was delivered for 2 seconds and then further shocks were delivered on a ratio of one shock for 2 seconds for every 20 licks. This was continued for a total of 3 minutes. The number of shocks taken by each rat during the 3 minute interval was recorded and compared to a control group. […]
# [3] = tested on: brain-specific receptors of rats (3H-benzodiazepine binding); assay: Inhibition of the binding of 3H-benzodiazepine to brain-specific receptors of rats; parameters: species or system rat (Wistar strain); conditions: rat cortex P2-fraction; 3H-diazepam 1.5 nM or 3H-flunitrazepam 1.0 nM; pH 7.4; 30 min in ice; test concentration not given
# [4] = Rattus norvegicus, 25 mg/kg oral or i.p., read-out: % of Rats Protected
SMILES,"responders at 25 mg/kg [1, 4] [%]",Nonconditional Passive Avoidance Test result [2],% Inhibition [3] [%],% Inhibition (result in words) [3],"responders at 3.1 mg/kg ([1]; Rattus norvegicus, 3.1 mg/kg oral or i.p., read-out: % of Rats Protected) [%]",% of Rats Protected (result in words) ([1]; 6.25 mg/kg oral or i.p.),% of Rats Protected (result in words) ([1]; 25 mg/kg oral or i.p.)
"Cc1nccn1-c1cccc(-c2ccnc3c(Cl)cnn23)c1 [Example 12, 3-chloro-7-[3-(2-methyl-1H-imidazol-1-yl)phenyl]pyrazolo[1,5-a]pyrimidine compd. with dichloromethane (20:1)]",100,active,,,,,
"Cc1cn(-c2cccc(-c3ccnc4c(C#N)cnn34)c2)cn1 [Example 20, 7-[3-(4-methyl-1H-imidazol-1-yl)-phenyl]pyrazolo[1,5-a]pyrimidine-3-carbonitrile]",0,inactive,,,,,
"Cc1nccn1-c1cccc(-c2ccnc3c(C#N)cnn23)c1 [Example 2, 7-[3-(2-methyl-1H-imidazol-1-yl)-phenyl]pyrazolo[1,5-a]pyrimidine-3-carbonitrile compd. with dichloromethane 20:1]",75,inactive,88,,,,
"N#Cc1cnn2c(-c3cccc(-n4ccnc4)c3)ccnc12 [Example 3, 7-[3-(1H-imidazol-1-yl)phenyl]-pyrazolo[1,5-a]pyrimidine-3-carbonitrile]",100,active,44,,,,
"CCOC(=O)c1cnn2c(-c3cccc(-n4ccnc4C)c3)ccnc12 [Example 21, ethyl 7-[3-(2-methyl-1H-imidazol-1-yl)phenyl]pyrazolo[1,5-a]pyrimidine-3-carboxylate]",0,inactive,,inactive,,,
"Cc1nccn1-c1cccc(-c2ccnc3ccnn23)c1 [Example 13, 7-[3-(2-methyl-1H-imidazol-1-yl)-phenyl]pyrazolo[1,5-a]pyrimidine]",50,active,,,,,
"O=C(c1ccco1)c1cnn2c(-c3cccc(-n4ccnc4)c3)ccnc12 [Example 5, 2-furanyl[7-[3-(1H-imidazol-1-yl)-phenyl]-pyrazolo[1,5-a]pyrimidin-3-yl]methanone]",100,active,72,,,,
"O=C(c1cccs1)c1cnn2c(-c3cccc(-n4ccnc4)c3)ccnc12 [Example 11, [7-[3-(1H-imidazol-1-yl)phenyl]pyrazolo[1,5-a]pyrimidin-3-yl]-2-thienyl-methanone]",50,inactive,100,,,,
"Cc1cn(-c2cccc(-c3ccnc4c(C(=O)c5ccco5)cnn34)c2)cn1 [Example 9, 2-furanyl[7-[3-(4-methyl-1H-imidazol-1-yl)phenyl]pyrazolo[1,5-a]pyrimidin-3-yl]methanone compd. with dichloromethane (20:1)]",50,active,98,,,,
"O=C(c1ccccc1)c1cnn2c(-c3cccc(-n4ccnc4)c3)ccnc12 [Example 4, [7-[3-(1H-imidazol-1-yl)phenyl]pyrazolo[1,5-a]pyrimidin-3-yl]phenylmethanone]",100,inactive,94,,,,
"Cc1nccn1-c1cccc(-c2ccnc3c(C#N)c(N)nn23)c1.Cl [Example 19, 2-amino-7-[3-(2-methyl-1H-imidazol-1-yl)phenyl]pyrazolo-[1,5-a]pyrimidine-3-carbonitrile monohydrochloride]",,active,,,50,,
"Cc1nccn1-c1cccc(-c2ccnc3c(C(=O)c4ccccc4)cnn23)c1 [Example 1, [7-[3-(2-Methyl-1H-imidazol-1-yl)phenyl]pyrazolo[1,5-a]pyrimidin-3-yl]phenylmethanone compound with dichloromethane (20:1;)]",100,active,98,,,,
"c1cc(-c2ccnc3ccnn23)cc(-n2ccnc2)c1 [Example 6, 7-[3-(1H-imidazol-1-yl)-phenyl]pyrazolo[1,5-a]pyrimidine]",0,inactive,72,,,,
"CCc1nccn1-c1cccc(-c2ccnc3c(C(=O)c4ccccc4)cnn23)c1 [Example 15, [7-[3-(2-ethyl-1H-imidazol-1-yl)-phenyl]pyrazolo[1,5-a]pyrimidin-3-yl]-phenylmethanone]",,active,98,,,active,
"O=C(c1ccncc1)c1cnn2c(-c3cccc(-n4ccnc4)c3)ccnc12 [Example 17, [7-[3-(1H-imidazol-1-yl)-phenyl]pyrazolo[1,5-a]pyrimidin-3-yl]-4-pyridinylmethanone]",,active,90,,,,inactive
"Cc1cn(-c2cccc(-c3ccnc4c(C(=O)c5ccccc5)cnn34)c2)cn1 [Example 14, [7-[3-(4-methyl-1H-imidazol-1-yl)-phenyl]pyrazolo[1,5-a]pyrimidin-3-yl]-phenylmethanone compd. with dichloromethane (20:1)]",100,active,93,,,,
"Cc1cn(-c2cccc(-c3ccnc4c(C(=O)c5cccs5)cnn34)c2)cn1 [Example 8, [7-[3-(4-methyl-1H-imidazol-1-yl)-phenyl]pyrazolo[1,5-a]pyrimidin-3-yl]-2-thienyl-methanone]",75,active,75,,,,
"Cc1nccn1-c1cccc(-c2ccnc3c(C(=O)c4ccco4)cnn23)c1 [Example 7, 2-furanyl[7-[3-(2-methyl-1H-imidazol-1-yl)phenyl]pyrazolo[1,5-a]pyrimidin-3-yl]methanone compd. with dichloromethane (100:3)]",25,active,101,,,,
"Cc1nccn1-c1cccc(-c2ccnc3c(C(=O)c4cccs4)cnn23)c1 [Example 10, [7-[3-(2-methyl-1H-imidazol-1-yl)-phenyl]pyrazolo[1,5-a]pyrimidin-3-yl]-2-thienyl-methanone]",100,active,99,,,,
